Measured values reported in patent publication US20230399295A1, “COMPOSITIONS FOR INCREASING TISSUE REGENERATION AND DELAYING OR REDUCING GRANULOMA FORMATION” (THE BRIGHAM AND WOMEN'S HOSPITAL, INC., priority 2020, published 2023).

Legend:
[1] = tested on: Planaria (Dugesia japonica); assay: Planaria regeneration after surgical injury; type: in vivo
Protocol: Planaria were surgically injured post-ocular and received either vehicle (0.1% ethanol) or 10 nM 4,5-RCTR1 one-hour post-injury and imaged daily for six days. A) Representative images of Planaria regeneration from Day 1-6 post-surgical injury. B) Tissue regeneration indices (μm) from Day 1-6 post-surgically injured Planaria. C) Tissue regeneration rate (TRR, μm/day) is the rate (area of tissue regeneration/days at TRI50) to achieve 50% tissue regeneration after surgical injury. n=6 Planaria per group per day. Data represented as mean±SEM. Unpaired two-tailed Student's t-test. *p<0.05, **p<0.01, ***p<0.001, and ****p<0.0001 versus vehicle. Planaria (Dugesia japonica) were kept in water (Poland Spring, Poland, ME) at 20° c. All animals were starved for 7 days prior to surgery. Planaria were surgically injured post-ocularly and received either vehicle (0.1% ethanol) or 10 nM 4,5-RCTR1 in water one-hour post-injury. Tissue regeneration was monitored daily for six days via a Zeiss Axiovert 40 CFL Microscope (Jena, Germany) equipped with a Lumenera Infinity 3 Camera (Ottawa, Canada) running Image-Pro Plus (Version 7.0.0.591, Media Cybernetics, Rockville, MD, USA). Regenerated tissue was quantified using ImageJ software (NIH). The tissue regeneration index (TRI) normalizes the total area of regenerated tissue by the post-ocular width. The TRI50 is the amount of time it takes to reach 50% of the maximum […]. […] FIGS. 2A, 2B and 2C: Planaria were surgically injured post-ocular and received either vehicle (0.1% ethanol) or 4,5-RCTR1 one-hour post-injury and imaged daily for six days. 2A) Representative images of Planaria regeneration from Day 1-6 post-surgical injury. 2B) Tissue regeneration indices (μm) from Day 1-6 post-surgically injured Planaria. 2C) Tissue regeneration rate (TRR, μm/day) is the rate (area of tissue regeneration/days at TRI50) to achieve 50% tissue regeneration after surgical injury. n=6 Planaria per group per day. Data represented as mean±SEM. Unpaired two-tailed Student's t-test. *p<0.05, **p<0.01, ***p<0.001, and ****p<0.0001 versus vehicle.

human PBMCs = assay: Granuloma assay: human PBMCs with E. coli total protein extract-coupled sepharose beads; type: cell-based; conditions: single treatment 10 nM at time 0; scoring 0-4 at day 3; versus vehicle
Protocol: FIG. 3: Resolvin (Rv) Peptido-Lipids Delay Human Granuloma Formation. Freshly isolated human PBMCs were incubated with E. coli total protein extract covalently coupled CNBr-activated sepharose beads and received a single treatment of either vehicle (0.1% methanol or ethanol), 10 nM RvD3, 10 nM RCTR1, or 10 nM 4,5-RCTR1 at time 0 and incubated for 6 days. A) Scoring of day 3 granuloma severity post-single treatment with either vehicle (0.1% methanol or ethanol), 10 nM RvD3, 10 nM RCTR1, or 10 nM 4,5-RCTR1. n=3 individual human donors. Mean±SEM. Unpaired two-tailed Student's t-test. **p<0.01, ***p<0.001 versus vehicle. B) Representative images of granuloma formation on day 3 after a single treatment with either vehicle (0.1% methanol or ethanol), 10 nM RvD3, 10 nM RCTR1, or 10 nM 4,5-RCTR1. […]
E. coli (Serotype: 06:K2:H1) was grown overnight in Luria broth in an orbital shaker (400 rpm) at 37° C. […] Supernatant was taken before and after the coupling reaction and measured for protein content by BCA assay (Thermo Fisher Scientific) to determine the efficiency of the reaction. […]
Freshly isolated PBMCs (1×10^6 cells/well) were treated with either vehicle (0.1% ethanol), RvD3 (10 nM), RCTR1 (10 nM) or 4,5-RCTR1 (10 nM) and E. coli total protein lysate-coated CNBr-activated sepharose beads simultaneously in 1 mL complete RPMI-1640. […] Granulomas were scored based on formation progression. […]

[2] = Half-life in the body (statement only, no method); conditions: in vivo

half-life in the body [2]: relatively sort half-life
Compound: CC/C=C\C[C@H](O)/C=C/C=C\C\C=C/C=C/C=C/[C@@H](SC[C@H](NC(=O)CC[C@H](N)C(=O)O)C(=O)NCC(=O)O)[C@@H](O)CCC(=O)O [4,5-RCTR1, 5-glutathionyl, 4,17-hydroxy-docosahexaenoic acid]
amount of tissue regenerated ([1]; in vivo): increases the amount of tissue regenerated
time required for tissue regeneration ([1]; in vivo): accelerates the time required for tissue regeneration
regenerative action / planaria regeneration ([1]; surgically injured post-ocular, 10 nM one-hour post-injury, imaged daily for six days, versus vehicle): regenerative action
granuloma formation (human PBMCs): significantly delays granuloma formation
